In PubChem BioAssay AID2060493 (Molecular Pharmacology Branch, DTP, NCI, 2025):

Test system: 616215-338-R-J1-PDC tumor spheroids, viability
Experiment: Anticancer human tumor 616215-338-R-J1-PDC patient-derived colon adenocarcinoma cell line growth inhibition [GQUAD]
Settings: spheroids with HUVEC and MSC; for IC50: curve of first compound; for viability, T/C: stronger effect = lower value
Outline: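 Viability of tumor cells grown as complex spheroids with endothelial and stromal cells, exposed to drug combinations. Top concentration at or near clinical Cmax (else 10 microM), diluted in half-log increments.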

[1] = second compound 0.0316 µM, first compound 0.0316 µM
[2] = second compound 0.0316 µM, first compound 0.1 µM
[3] = second compound 0.0316 µM, first compound 0.316 µM
[4] = second compound 0.0316 µM, first compound 1 µM
[5] = second compound 0.0316 µM, first compound 3.16 µM
[6] = second compound 0.0316 µM, first compound 10 µM
[7] = second compound 0.1 µM, first compound 0.0316 µM
[8] = second compound 0.1 µM, first compound 0.1 µM
[9] = second compound 0.1 µM, first compound 0.316 µM
[10] = second compound 0.1 µM, first compound 1 µM
[11] = second compound 0.1 µM, first compound 3.16 µM
[12] = second compound 0.1 µM, first compound 10 µM
[13] = second compound 0.316 µM, first compound 0.0316 µM
[14] = second compound 0.316 µM, first compound 0.1 µM
[15] = second compound 0.316 µM, first compound 0.316 µM
[16] = second compound 0.316 µM, first compound 1 µM
[17] = second compound 0.316 µM, first compound 3.16 µM
[18] = second compound 0.316 µM, first compound 10 µM
[19] = second compound 1 µM, first compound 0.0316 µM
[20] = second compound 1 µM, first compound 0.1 µM
[21] = second compound 1 µM, first compound 0.316 µM
[22] = second compound 1 µM, first compound 1 µM
[23] = second compound 1 µM, first compound 3.16 µM
[24] = second compound 1 µM, first compound 10 µM
[25] = second compound 3.16 µM, first compound 0.0316 µM
[26] = second compound 3.16 µM, first compound 0.1 µM
[27] = second compound 3.16 µM, first compound 0.316 µM
[28] = second compound 3.16 µM, first compound 1 µM
[29] = second compound 3.16 µM, first compound 3.16 µM
[30] = second compound 3.16 µM, first compound 10 µM
[31] = second compound 10 µM, first compound 0.0316 µM
[32] = second compound 10 µM, first compound 0.1 µM
[33] = second compound 10 µM, first compound 0.316 µM
[34] = second compound 10 µM, first compound 1 µM
[35] = second compound 10 µM, first compound 3.16 µM
[36] = second compound 10 µM, first compound 10 µM
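Note: spheroids exposed to agents for 7 days before readout.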
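Throughout, for viability, T/C: percent viability relative to DMSO vehicle control wells taken as 100%.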

C#Cc1c(F)ccc2cc(O)cc(-c3ncc4c(N5CC6CCC(C5)N6)nc(OCC56CCCN5CC(F)C6)nc4c3F)c12 (stereo not drawn) + Cc1cnc(CNC(=O)c2c(=O)c3ccc(N4CCCN(C)CC4)nc3n3c2sc2ccccc23)cn1
IC50 (second compound 0.0316 µM): 4510 nM
IC50 (second compound 0.1 µM): 422 nM
IC50 (second compound 0.316 µM): < 31.6 nM
IC50 (second compound 1 µM): < 31.6 nM
IC50 (second compound 3.16 µM): 43.6 nM
IC50 (second compound 10 µM): < 31.6 nM
viability, T/C [1]: 98.8%
viability, T/C [2]: 88.4%
viability, T/C [3]: 103%
viability, T/C [4]: 67.6%
viability, T/C [5]: 63.8%
viability, T/C [6]: 27.8%
viability, T/C [7]: 64.3%
viability, T/C [8]: 64.2%
viability, T/C [9]: 51.9%
viability, T/C [10]: 40.2%
viability, T/C [11]: 28.7%
viability, T/C [12]: 22.1%
viability, T/C [13]: 38.8%
viability, T/C [14]: 40.5%
viability, T/C [15]: 48.3%
viability, T/C [16]: 40.8%
viability, T/C [17]: 39.2%
viability, T/C [18]: 19%
viability, T/C [19]: 34.7%
viability, T/C [20]: 27.1%
viability, T/C [21]: 40.9%
viability, T/C [22]: 19.8%
viability, T/C [23]: 20.8%
viability, T/C [24]: 20.4%
viability, T/C [25]: 58.3%
viability, T/C [26]: 27.7%
viability, T/C [27]: 24.1%
viability, T/C [28]: 15.6%
viability, T/C [29]: 18.8%
viability, T/C [30]: 7.2%
viability, T/C [31]: 21%
viability, T/C [32]: 18.5%
viability, T/C [33]: 22.3%
viability, T/C [34]: 16.8%
viability, T/C [35]: 14.8%
viability, T/C [36]: 14.6%

CC(=O)O[C@H]1C(=O)[C@@]2(C)[C@H]([C@H](OC(=O)c3ccccc3)[C@]3(O)C[C@H](OC(=O)[C@H](O)[C@@H](NC(=O)c4ccccc4)c4ccccc4)C(C)=C1C3(C)C)[C@]1(OC(C)=O)CO[C@@H]1C[C@@H]2O + Cc1cnc(CNC(=O)c2c(=O)c3ccc(N4CCCN(C)CC4)nc3n3c2sc2ccccc23)cn1
IC50 (second compound 0.0316 µM): < 31.6 nM
IC50 (second compound 0.1 µM): < 31.6 nM
IC50 (second compound 0.316 µM): < 31.6 nM
IC50 (second compound 1 µM): < 31.6 nM
IC50 (second compound 3.16 µM): < 31.6 nM
IC50 (second compound 10 µM): < 31.6 nM
viability, T/C [1]: 37.2%
viability, T/C [2]: 24.9%
viability, T/C [3]: 20.3%
viability, T/C [4]: 15.9%
viability, T/C [5]: 27.6%
viability, T/C [6]: 17.1%
viability, T/C [7]: 26.9%
viability, T/C [8]: 35.8%
viability, T/C [9]: 31.1%
viability, T/C [10]: 26.7%
viability, T/C [11]: 26.2%
viability, T/C [12]: 32%
viability, T/C [13]: 37%
viability, T/C [14]: 34.4%
viability, T/C [15]: 38.5%
viability, T/C [16]: 36.4%
viability, T/C [17]: 39.4%
viability, T/C [18]: 24.7%
viability, T/C [19]: 22.9%
viability, T/C [20]: 35.4%
viability, T/C [21]: 30.1%
viability, T/C [22]: 37.9%
viability, T/C [23]: 30.2%
viability, T/C [24]: 33.8%
viability, T/C [25]: 26.6%
viability, T/C [26]: 21.6%
viability, T/C [27]: 28.9%
viability, T/C [28]: 35.8%
viability, T/C [29]: 22.5%
viability, T/C [30]: 30.2%
viability, T/C [31]: 25%
viability, T/C [32]: 22.3%
viability, T/C [33]: 27.9%
viability, T/C [34]: 25%
viability, T/C [35]: 24.4%
viability, T/C [36]: 25.8%

CCCS(=O)(=O)Nc1ccc(F)c(C(=O)c2c[nH]c3ncc(-c4ccc(Cl)cc4)cc23)c1F + Cc1cnc(CNC(=O)c2c(=O)c3ccc(N4CCCN(C)CC4)nc3n3c2sc2ccccc23)cn1
IC50 (second compound 0.0316 µM): 5390 nM
IC50 (second compound 0.1 µM): 2100 nM
IC50 (second compound 0.316 µM): < 31.6 nM
IC50 (second compound 1 µM): < 31.6 nM
IC50 (second compound 3.16 µM): < 31.6 nM
IC50 (second compound 10 µM): < 31.6 nM
viability, T/C [1]: 107%
viability, T/C [2]: 110%
viability, T/C [3]: 113%
viability, T/C [4]: 104%
viability, T/C [5]: 90%
viability, T/C [6]: 3.94%
viability, T/C [7]: 58.2%
viability, T/C [8]: 59%
viability, T/C [9]: 56%
viability, T/C [10]: 48.5%
viability, T/C [11]: 49.9%
viability, T/C [12]: 10.5%
viability, T/C [13]: 34.4%
viability, T/C [14]: 43.5%
viability, T/C [15]: 38.5%
viability, T/C [16]: 38.4%
viability, T/C [17]: 33.1%
viability, T/C [18]: 8.31%
viability, T/C [19]: 31%
viability, T/C [20]: 34.2%
viability, T/C [21]: 36.7%
viability, T/C [22]: 35.9%
viability, T/C [23]: 37.1%
viability, T/C [24]: 4.42%
viability, T/C [25]: 31.1%
viability, T/C [26]: 18.5%
viability, T/C [27]: 32.4%
viability, T/C [28]: 23%
viability, T/C [29]: 27.7%
viability, T/C [30]: 0.11%
viability, T/C [31]: 15.7%
viability, T/C [32]: 21.4%
viability, T/C [33]: 27.6%
viability, T/C [34]: 19.2%
viability, T/C [35]: 23.9%
viability, T/C [36]: 0.17%

O=c1[nH]cc(F)c(=O)[nH]1 + Cc1cnc(CNC(=O)c2c(=O)c3ccc(N4CCCN(C)CC4)nc3n3c2sc2ccccc23)cn1
IC50 (second compound 0.0316 µM): 786 nM
IC50 (second compound 0.1 µM): 559 nM
IC50 (second compound 0.316 µM): < 31.6 nM
IC50 (second compound 1 µM): < 31.6 nM
IC50 (second compound 3.16 µM): < 31.6 nM
IC50 (second compound 10 µM): < 31.6 nM
viability, T/C [1]: 98.8%
viability, T/C [2]: 98.7%
viability, T/C [3]: 62.9%
viability, T/C [4]: 51.5%
viability, T/C [5]: 40.4%
viability, T/C [6]: 35.8%
viability, T/C [7]: 66.8%
viability, T/C [8]: 62.4%
viability, T/C [9]: 54.1%
viability, T/C [10]: 40.4%
viability, T/C [11]: 46.5%
viability, T/C [12]: 31.5%
viability, T/C [13]: 40.9%
viability, T/C [14]: 48.7%
viability, T/C [15]: 54.6%
viability, T/C [16]: 36.1%
viability, T/C [17]: 43%
viability, T/C [18]: 39.2%
viability, T/C [19]: 32.4%
viability, T/C [20]: 39.2%
viability, T/C [21]: 42.6%
viability, T/C [22]: 33.4%
viability, T/C [23]: 36.6%
viability, T/C [24]: 22.4%
viability, T/C [25]: 31.7%
viability, T/C [26]: 25.2%
viability, T/C [27]: 22.1%
viability, T/C [28]: 30.3%
viability, T/C [29]: 34.1%
viability, T/C [30]: 28.7%
viability, T/C [31]: 25.7%
viability, T/C [32]: 28.7%
viability, T/C [33]: 25.6%
viability, T/C [34]: 30.3%
viability, T/C [35]: 25.6%
viability, T/C [36]: 30.4%
